# Activity calls are given as the source filed them. The rule behind the calls is not given here.
# Columns and labels:
# [1] = test system: Fibroblast of cardiac tissue; assay: Reversal of Ang II-induced proliferation in neonatal rat cardiac fibroblasts measured after 48 hrs by MTT assay; type: functional, cell-based
# [2] = target: T1, Lysine-specific demethylase 5B (Homo sapiens, UniProt Q9UGL1); assay: Inhibition of KDM5B (unknown origin) at 10 uM incubated for 30 mins by HRTF assay relative to control
# [3] = target: T1, Lysine-specific demethylase 5B; assay: Inhibition of KDM5B (unknown origin) incubated for 30 mins by HRTF assay
# [4] = target: Lysine-specific demethylase 5A (Homo sapiens, UniProt P29375); assay: Inhibition of KDM5A (unknown origin) incubated for 30 mins by HRTF assay
# [5] = target: Lysine-specific demethylase 5C (Homo sapiens, UniProt P41229); assay: Inhibition of KDM5C (unknown origin) incubated for 30 mins by HRTF assay
# [6] = Cytotoxicity against neonatal rat cardiac fibroblast assessed as cell survival rate at 10 uM measured after 48 hrs by MTT assay relative to control; type: toxicity, cell-based, Fibroblast of cardiac tissue; conditions: neonatal rat cardiac fibroblasts, read-out: Activity
# [7] = Cytotoxicity against neonatal rat Cardiomyocytes assessed as cell survival rate at 10 uM measured after 48 hrs by MTT assay; type: toxicity, cell-based, Cardiac muscle cell; conditions: read-out: Activity
# [8] = test system: Fibroblast of cardiac tissue; assay: Reversal of Ang II-induced increase in collagen I level in neonatal rat cardiac fibroblasts by Western blot analysis; type: functional, cell-based
# [9] = test system: Fibroblast of cardiac tissue; assay: Reversal of Ang II-induced increase in […] level in neonatal rat cardiac fibroblasts by Western blot analysis; type: functional, cell-based
# [10] = test system: Fibroblast of cardiac tissue; assay: Reversal of Ang II-induced increase in alpha-SMA level in neonatal rat cardiac fibroblasts by Western blot analysis; type: functional, cell-based
# [11] = test system: Fibroblast of cardiac tissue; assay: Reversal of Ang II-induced decrease in H3K4me3 level in neonatal rat cardiac fibroblasts by Western blot analysis; type: functional, cell-based
# [12] = test system: Fibroblast of cardiac tissue; assay: Reversal of Ang II-induced decrease in H3K4me3 level in neonatal rat cardiac fibroblasts by immunofluorescence staining assay; type: functional, cell-based
# [13] = test system: Fibroblast of cardiac tissue; assay: Antimigratory activity in neonatal rat cardiac fibroblasts assessed as fold decrease in Ang II-induced migration measured after 48 hrs by scratch test; type: functional
# [14] = test system: Fibroblast of cardiac tissue; assay: Antimigratory activity in neonatal rat cardiac fibroblasts assessed as fold decrease in Ang II-induced migration measured after 48 hrs by transwell test (reference value: 1.8 fold); type: functional
# [15] = Clearance in Sprague-Dawley rat at 2 mg/kg, iv measured upto 24 hrs; type: ADME, organism-based; conditions: in vivo
# [16] = Clearance in Sprague-Dawley rat at 10 mg/kg, po measured upto 24 hrs; type: ADME, organism-based; conditions: in vivo
# [17] = Volume of distribution at steady state in Sprague-Dawley rat at 10 mg/kg, po measured upto 24 hrs; type: ADME, organism-based; conditions: in vivo
# [18] = Volume of distribution at steady state in Sprague-Dawley rat at 2 mg/kg, iv measured upto 24 hrs; type: ADME, organism-based; conditions: in vivo, read-out: Vdss
# [19] = Half life in Sprague-Dawley rat at 10 mg/kg, po measured upto 24 hrs; type: ADME, organism-based; conditions: in vivo
# [20] = Half life in Sprague-Dawley rat at 2 mg/kg, iv measured upto 24 hrs; type: ADME, organism-based; conditions: in vivo
# [21] = Tmax in Sprague-Dawley rat at 10 mg/kg, po measured upto 24 hrs; type: ADME, organism-based; conditions: in vivo
# [22] = Cmax in Sprague-Dawley rat at 10 mg/kg, po measured upto 24 hrs; type: ADME, organism-based; parameters: dose 10 mg/kg, time < 24 hrs, route po; conditions: in vivo
# [23] = Cmax in Sprague-Dawley rat at 2 mg/kg, iv measured upto 24 hrs; type: ADME, organism-based; parameters: time < 24 hrs, dose 2 mg/kg, route iv; conditions: in vivo
# [24] = AUC in Sprague-Dawley rat at 10 mg/kg, po measured upto 24 hrs; type: ADME, organism-based; parameters: dose 10 mg/kg, time < 24 hrs, route po; conditions: in vivo
# [25] = AUC in Sprague-Dawley rat at 2 mg/kg, iv measured upto 24 hrs; type: ADME, organism-based; parameters: dose 2 mg/kg, time < 24 hrs, route iv; conditions: in vivo
# [26] = Oral bioavailability in Sprague-Dawley rat at 10 mg/kg measured upto 24 hrs; type: ADME, organism-based; conditions: in vivo
# [27] = Acute toxicity in C57BL/6 mouse assessed as survival at 2 g/Kg by one-time gavage measured after 2 weeks; conditions: in vivo, po, 2000 mg/kg, 336 h
# [28] = Acute toxicity in C57BL/6 mouse assessed as body weight at 2 g/Kg by one-time gavage measured after 2 weeks; conditions: in vivo, po, 2000 mg/kg, 336 h
# [29] = Acute toxicity in C57BL/6 mouse assessed as effect on heart at 2 g/Kg by hematoxylin and eosin staining based histopathological analysis; type: tissue-based; conditions: in vivo, 2000 mg/kg
# [30] = Acute toxicity in C57BL/6 mouse assessed as effect on spleen at 2 g/Kg by hematoxylin and eosin staining based histopathological analysis; type: tissue-based; conditions: in vivo, 2000 mg/kg
# [31] = Acute toxicity in C57BL/6 mouse assessed as effect on liver at 2 g/Kg by hematoxylin and eosin staining based histopathological analysis; type: tissue-based; conditions: in vivo, 2000 mg/kg
# [32] = Acute toxicity in C57BL/6 mouse assessed as effect on lung at 2 g/Kg by hematoxylin and eosin staining based histopathological analysis; type: tissue-based; conditions: in vivo, 2000 mg/kg
# [33] = Acute toxicity in C57BL/6 mouse assessed as effect on kidney at 2 g/Kg by hematoxylin and eosin staining based histopathological analysis; type: tissue-based; conditions: in vivo, 2000 mg/kg
# [34] = test system: Mus musculus; assay: Anti-myocardial remodeling function in isoproterenol-induced C57BL/6 mouse model assessed as increase in ejection fraction at 20 mg/kg by one-time gavage for 21 days; type: functional; conditions: time 21 day
# [35] = test system: Mus musculus; assay: Anti-myocardial remodeling function in isoproterenol-induced C57BL/6 mouse model assessed as increase in shortening fraction at 20 mg/kg by one-time gavage for 21 days; type: functional; conditions: time 21 day
# [36] = test system: Mus musculus; assay: Anti-myocardial remodeling function in isoproterenol-induced C57BL/6 mouse model assessed as decrease in heart weight to body weight ratio at 20 mg/kg by one-time gavage for 21 days; type: functional; conditions: time 21 day
# [37] = test system: Mus musculus; assay: Anti-myocardial remodeling function in isoproterenol-induced C57BL/6 mouse model assessed as decrease in heart weight to […] ratio at 20 mg/kg by one-time gavage for 21 days; type: functional; conditions: time 21 day
# [38] = test system: Mus musculus; assay: Anti-myocardial remodeling function in isoproterenol-induced C57BL/6 mouse model assessed as increase in ejection fraction at 50 mg/kg by one-time gavage for 21 days; type: functional; conditions: time 21 day
# [39] = test system: Mus musculus; assay: Anti-myocardial remodeling function in isoproterenol-induced C57BL/6 mouse model assessed as increase in shortening fraction at 50 mg/kg by one-time gavage for 21 days; type: functional; conditions: time 21 day
# [40] = test system: Mus musculus; assay: Anti-myocardial remodeling function in isoproterenol-induced C57BL/6 mouse model assessed as decrease in heart weight to body weight ratio at 50 mg/kg by one-time gavage for 21 days; type: functional; conditions: time 21 day
# [41] = test system: Mus musculus; assay: Anti-myocardial remodeling function in isoproterenol-induced C57BL/6 mouse model assessed as decrease in heart weight to […] ratio at 50 mg/kg by one-time gavage for 21 days; type: functional; conditions: time 21 day
# [42] = test system: Mus musculus; assay: Anti-myocardial remodeling function in isoproterenol-induced C57BL/6 mouse heart injury model assessed as reversal of pathological damage at 20 to 50 mg/kg by one-time gavage for 21 days by Masson staining and Sirius Red staining based analysis; type: functional, organism-based; conditions: dose 20-50 mg/kg, time 21.0 day
# [43] = test system: Mus musculus; assay: Anti-myocardial remodeling function in isoproterenol-induced C57BL/6 mouse model assessed as decrease in cardiac hypertrophy ANP protein at 20 mg/kg by one-time gavage for 21 days relative to control; type: functional; parameters: scale not given: the % may be the effect or the level left; conditions: time 21 day
# [44] = test system: Mus musculus; assay: Anti-myocardial remodeling function in isoproterenol-induced C57BL/6 mouse model assessed as decrease in cardiac hypertrophy BNP protein at 20 mg/kg by one-time gavage for 21 days relative to control; type: functional; parameters: scale not given: the % may be the effect or the level left; conditions: time 21 day
# [45] = test system: Mus musculus; assay: Anti-myocardial remodeling function in isoproterenol-induced C57BL/6 mouse model assessed as decrease in cardiac hypertrophy ANP protein at 50 mg/kg by one-time gavage for 21 days relative to control; type: functional; parameters: scale not given: the % may be the effect or the level left; conditions: time 21 day
# [46] = test system: Mus musculus; assay: Anti-myocardial remodeling function in isoproterenol-induced C57BL/6 mouse model assessed as decrease in cardiac hypertrophy BNP protein at 50 mg/kg by one-time gavage for 21 days relative to control; type: functional; parameters: scale not given: the % may be the effect or the level left; conditions: time 21 day
# T1 sequence (Q9UGL1 whole entry): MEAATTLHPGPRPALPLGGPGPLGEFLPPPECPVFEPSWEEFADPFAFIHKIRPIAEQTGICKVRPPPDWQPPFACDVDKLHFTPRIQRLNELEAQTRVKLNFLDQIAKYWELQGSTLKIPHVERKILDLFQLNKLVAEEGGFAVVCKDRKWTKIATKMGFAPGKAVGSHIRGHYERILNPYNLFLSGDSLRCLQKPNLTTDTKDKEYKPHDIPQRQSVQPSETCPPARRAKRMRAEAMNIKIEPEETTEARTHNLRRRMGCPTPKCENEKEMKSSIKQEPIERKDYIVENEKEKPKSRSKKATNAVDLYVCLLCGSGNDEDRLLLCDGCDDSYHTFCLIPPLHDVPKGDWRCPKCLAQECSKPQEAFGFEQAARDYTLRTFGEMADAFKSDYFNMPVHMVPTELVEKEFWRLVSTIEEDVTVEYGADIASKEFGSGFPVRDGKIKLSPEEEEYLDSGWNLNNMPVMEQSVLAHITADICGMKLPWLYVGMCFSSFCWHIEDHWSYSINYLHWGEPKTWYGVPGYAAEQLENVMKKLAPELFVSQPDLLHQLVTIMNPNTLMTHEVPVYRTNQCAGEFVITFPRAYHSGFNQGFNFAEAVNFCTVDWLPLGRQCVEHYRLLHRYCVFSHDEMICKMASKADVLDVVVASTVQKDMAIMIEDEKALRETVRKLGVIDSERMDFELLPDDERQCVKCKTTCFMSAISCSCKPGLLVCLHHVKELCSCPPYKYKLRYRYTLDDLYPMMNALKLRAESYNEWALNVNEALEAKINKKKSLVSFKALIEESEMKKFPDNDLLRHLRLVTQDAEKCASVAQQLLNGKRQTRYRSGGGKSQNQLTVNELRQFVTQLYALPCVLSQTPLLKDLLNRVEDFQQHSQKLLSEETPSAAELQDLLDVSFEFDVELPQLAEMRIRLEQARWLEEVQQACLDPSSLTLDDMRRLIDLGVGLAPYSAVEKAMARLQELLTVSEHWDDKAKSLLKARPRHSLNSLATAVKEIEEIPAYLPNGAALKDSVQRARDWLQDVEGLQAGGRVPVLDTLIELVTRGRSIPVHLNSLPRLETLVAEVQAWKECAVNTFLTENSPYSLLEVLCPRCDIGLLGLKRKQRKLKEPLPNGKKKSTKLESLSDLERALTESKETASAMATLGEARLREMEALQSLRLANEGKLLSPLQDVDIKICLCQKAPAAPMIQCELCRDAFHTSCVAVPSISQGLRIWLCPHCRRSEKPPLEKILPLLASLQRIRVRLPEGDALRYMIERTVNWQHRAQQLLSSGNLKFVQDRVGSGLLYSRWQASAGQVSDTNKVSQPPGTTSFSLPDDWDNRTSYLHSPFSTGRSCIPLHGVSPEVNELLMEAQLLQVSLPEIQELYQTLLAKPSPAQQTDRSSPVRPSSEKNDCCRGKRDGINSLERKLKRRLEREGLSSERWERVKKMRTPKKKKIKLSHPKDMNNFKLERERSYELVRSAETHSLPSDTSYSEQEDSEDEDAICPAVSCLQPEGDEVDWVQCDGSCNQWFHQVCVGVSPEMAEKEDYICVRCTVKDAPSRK
# Lysine-specific demethylase 5A, sequence (P29375 whole entry): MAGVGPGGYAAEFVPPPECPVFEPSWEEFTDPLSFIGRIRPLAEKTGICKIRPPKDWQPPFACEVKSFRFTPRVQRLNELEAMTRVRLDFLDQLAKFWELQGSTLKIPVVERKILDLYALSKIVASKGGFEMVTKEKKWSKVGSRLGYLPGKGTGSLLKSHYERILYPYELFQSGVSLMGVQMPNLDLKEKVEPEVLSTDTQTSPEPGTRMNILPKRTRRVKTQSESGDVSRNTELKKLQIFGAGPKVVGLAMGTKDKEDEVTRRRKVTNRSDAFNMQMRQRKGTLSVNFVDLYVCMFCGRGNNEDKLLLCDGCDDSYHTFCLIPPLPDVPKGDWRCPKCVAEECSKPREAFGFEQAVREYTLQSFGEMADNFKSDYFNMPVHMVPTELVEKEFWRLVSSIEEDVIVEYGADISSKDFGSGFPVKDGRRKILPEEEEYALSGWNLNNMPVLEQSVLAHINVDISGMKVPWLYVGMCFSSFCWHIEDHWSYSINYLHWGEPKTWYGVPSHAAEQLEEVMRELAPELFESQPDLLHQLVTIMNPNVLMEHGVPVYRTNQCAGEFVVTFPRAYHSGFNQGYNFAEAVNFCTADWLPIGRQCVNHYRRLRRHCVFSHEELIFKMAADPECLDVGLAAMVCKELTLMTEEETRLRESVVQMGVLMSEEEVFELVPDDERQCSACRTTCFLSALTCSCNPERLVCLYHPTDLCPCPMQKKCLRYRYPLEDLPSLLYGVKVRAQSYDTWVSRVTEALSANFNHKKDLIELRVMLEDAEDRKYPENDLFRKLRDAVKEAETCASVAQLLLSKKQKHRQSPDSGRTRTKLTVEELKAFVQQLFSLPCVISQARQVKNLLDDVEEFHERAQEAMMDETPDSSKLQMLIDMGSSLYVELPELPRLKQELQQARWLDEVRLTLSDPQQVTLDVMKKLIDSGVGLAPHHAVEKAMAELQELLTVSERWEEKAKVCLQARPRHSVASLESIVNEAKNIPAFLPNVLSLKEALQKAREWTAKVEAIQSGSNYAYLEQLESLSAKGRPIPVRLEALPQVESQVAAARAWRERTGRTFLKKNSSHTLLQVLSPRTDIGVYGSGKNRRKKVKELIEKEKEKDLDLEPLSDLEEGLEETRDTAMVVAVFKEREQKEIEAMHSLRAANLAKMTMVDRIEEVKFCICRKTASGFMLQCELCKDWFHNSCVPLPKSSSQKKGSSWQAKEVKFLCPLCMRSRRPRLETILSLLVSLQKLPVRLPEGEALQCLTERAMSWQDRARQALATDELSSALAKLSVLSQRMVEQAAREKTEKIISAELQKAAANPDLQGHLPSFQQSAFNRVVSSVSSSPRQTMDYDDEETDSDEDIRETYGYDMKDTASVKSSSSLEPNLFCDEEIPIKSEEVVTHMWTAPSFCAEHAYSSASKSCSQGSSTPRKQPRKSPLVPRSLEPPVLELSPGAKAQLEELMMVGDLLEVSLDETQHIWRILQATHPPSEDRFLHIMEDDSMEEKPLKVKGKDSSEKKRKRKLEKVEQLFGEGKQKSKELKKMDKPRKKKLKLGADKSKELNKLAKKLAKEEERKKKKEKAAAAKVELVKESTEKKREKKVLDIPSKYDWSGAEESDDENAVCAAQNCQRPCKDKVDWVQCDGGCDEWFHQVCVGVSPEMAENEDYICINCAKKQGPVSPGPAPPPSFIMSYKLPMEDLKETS
# Lysine-specific demethylase 5C, sequence (P41229 whole entry): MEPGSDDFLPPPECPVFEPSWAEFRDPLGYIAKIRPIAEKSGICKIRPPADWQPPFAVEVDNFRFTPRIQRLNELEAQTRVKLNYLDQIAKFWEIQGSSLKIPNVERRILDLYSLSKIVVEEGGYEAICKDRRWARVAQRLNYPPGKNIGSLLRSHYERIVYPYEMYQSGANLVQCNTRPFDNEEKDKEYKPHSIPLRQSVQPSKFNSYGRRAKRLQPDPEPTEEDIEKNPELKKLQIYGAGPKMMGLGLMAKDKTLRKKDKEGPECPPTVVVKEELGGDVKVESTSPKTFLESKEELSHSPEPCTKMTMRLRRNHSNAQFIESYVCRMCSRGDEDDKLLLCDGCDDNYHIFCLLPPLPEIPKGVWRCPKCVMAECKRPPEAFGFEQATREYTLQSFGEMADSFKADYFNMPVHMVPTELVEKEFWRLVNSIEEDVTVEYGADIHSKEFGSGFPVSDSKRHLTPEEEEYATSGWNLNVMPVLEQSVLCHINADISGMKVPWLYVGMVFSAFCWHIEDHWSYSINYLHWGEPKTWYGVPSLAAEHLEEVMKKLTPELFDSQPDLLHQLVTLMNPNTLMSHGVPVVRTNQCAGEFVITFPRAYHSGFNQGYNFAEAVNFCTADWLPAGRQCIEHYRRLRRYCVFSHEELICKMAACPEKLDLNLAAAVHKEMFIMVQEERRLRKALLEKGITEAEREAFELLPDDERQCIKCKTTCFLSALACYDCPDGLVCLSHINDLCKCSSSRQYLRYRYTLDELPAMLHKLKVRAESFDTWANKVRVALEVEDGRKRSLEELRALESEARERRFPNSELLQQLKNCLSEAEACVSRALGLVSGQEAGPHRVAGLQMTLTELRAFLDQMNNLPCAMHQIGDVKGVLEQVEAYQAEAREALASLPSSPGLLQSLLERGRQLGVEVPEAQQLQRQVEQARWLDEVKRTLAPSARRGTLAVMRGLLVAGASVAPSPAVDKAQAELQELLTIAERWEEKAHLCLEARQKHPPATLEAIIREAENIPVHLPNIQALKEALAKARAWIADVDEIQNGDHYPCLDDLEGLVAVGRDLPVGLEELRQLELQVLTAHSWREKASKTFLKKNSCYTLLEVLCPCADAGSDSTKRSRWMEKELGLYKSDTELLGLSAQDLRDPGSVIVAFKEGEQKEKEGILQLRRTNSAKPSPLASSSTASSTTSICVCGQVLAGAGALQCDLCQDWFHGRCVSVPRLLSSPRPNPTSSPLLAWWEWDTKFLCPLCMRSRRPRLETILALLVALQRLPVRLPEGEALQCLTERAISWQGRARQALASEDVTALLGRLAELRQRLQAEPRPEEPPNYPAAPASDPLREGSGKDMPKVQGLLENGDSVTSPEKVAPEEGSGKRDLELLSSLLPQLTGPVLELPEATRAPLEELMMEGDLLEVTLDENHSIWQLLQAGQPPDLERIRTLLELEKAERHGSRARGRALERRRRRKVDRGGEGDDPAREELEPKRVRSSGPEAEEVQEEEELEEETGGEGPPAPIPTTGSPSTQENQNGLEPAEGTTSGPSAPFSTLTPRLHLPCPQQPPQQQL
structure (smiles),measurement,setting,value
CC(C)c1cc(C(=O)N2CC[C@@H](NC(=O)NC3CC3)C2)n[nH]1,Activity,[1],Active
same,inhibition,[2],100%
same,IC50,[3],0.044 µM
same,IC50,[4],0.079 µM
same,IC50,[5],0.353 µM
same,"viability at 48 h, 10 µM",[6],90%
same,"viability at 48 h, 10 µM",[7],90%
same,Activity,[8],Active
same,Activity,[9],Active
same,Activity,[10],Active
same,Activity,[11],Active
same,Activity,[12],Active
same,Ratio,[13],0.77
same,Ratio,[14],0.6
same,clearance,[15],70 mL/min/kg
same,CL/F,[16],165 mL/min/kg
same,Vdss,[17],33.4 L/kg
same,Vd,[18],2.7 L/kg
same,half-life,[19],144 min
same,half-life,[20],24 min
same,Tmax,[21],24 min
same,Cmax,[22],710 ng/mL
same,Cmax,[23],1230 ng/mL
same,AUC at 24 h,[24],1040 ng·h/mL
same,AUC at 24 h,[25],480 ng·h/mL
same,bioavailability,[26],42.4%
same,Activity,[27],Non-Toxic
same,Activity,[28],Non-Toxic
same,Activity,[29],Non-Toxic
same,Activity,[30],Non-Toxic
same,Activity,[31],Non-Toxic
same,Activity,[32],Non-Toxic
same,Activity,[33],Non-Toxic
same,Activity,[34],77%
same,Activity,[35],44%
same,Ratio,[36],0.93
same,Ratio,[37],0.93
same,Activity,[38],83%
same,Activity,[39],50%
same,Ratio,[40],0.89
same,Ratio,[41],0.89
same,Activity,[42],Active
same,Activity,[43],85%
same,Activity,[44],75%
same,Activity,[45],71%
same,Activity,[46],54%
